{"source": "patent US12263155B2", "about": "“Combinations of monoamine oxidase inhibitors and serotonin receptor agonists and their therapeutic use” (Remedi, Inc., priority 2022, dated 2025)", "biological_target": "T1, brain MAO-A (Rattus norvegicus, UniProt P21396)", "T1 construct": "prepared from brain homogenates of male Sprague-Dawley rats, served as the source of MAO-A enzymatic activity; from tissue", "T1 sequence (P21396 1-526)": "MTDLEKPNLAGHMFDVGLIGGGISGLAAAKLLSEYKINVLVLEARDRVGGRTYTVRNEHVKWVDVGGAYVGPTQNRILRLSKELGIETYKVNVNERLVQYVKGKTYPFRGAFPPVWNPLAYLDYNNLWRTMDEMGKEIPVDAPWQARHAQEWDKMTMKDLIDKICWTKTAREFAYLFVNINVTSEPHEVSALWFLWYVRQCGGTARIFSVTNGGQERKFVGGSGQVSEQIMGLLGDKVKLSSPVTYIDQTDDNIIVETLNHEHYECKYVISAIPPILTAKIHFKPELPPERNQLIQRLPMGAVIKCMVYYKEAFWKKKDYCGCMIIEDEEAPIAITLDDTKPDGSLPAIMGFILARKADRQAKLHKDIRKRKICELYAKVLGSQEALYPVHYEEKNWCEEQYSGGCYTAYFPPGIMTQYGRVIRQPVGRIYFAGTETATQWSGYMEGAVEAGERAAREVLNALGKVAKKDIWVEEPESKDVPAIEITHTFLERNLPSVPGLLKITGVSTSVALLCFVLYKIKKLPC", "assay": "Ex vivo brain MAO-A activity after oral CX157 in rats", "set-up": "mean brain MAO-A activity (Avg.) / brain MAO-A activity, single experimental day: unit not given here", "conditions": "for mean brain MAO-A activity (Avg.): average of 4 days", "description": "Methods: Sprague-Dawley male rats (average weight of 190 g) were segregated into three groups for testing of the effects of CX157 on brain MAO-A enzyme activity. The three groups consisted of animals who received either 1, 5, and 10 mg/kg of CX157. Each group consisted of twenty-four subjects. Test animals were administered the doses of CX157 orally, by the gavage method in accordance with White & Scates, Drug Dev Res. 1992; 25:191-199.\nIn each drug group, four animals were sacrificed at each time period (0, 2, 4, 8, 18 and 24 hours) on four different days following drug administration. Brains were removed from the animal, bisected, frozen immediately on dry ice and placed in a −80° C. freezer. Trunk blood was collected in tubes containing sodium heparin and centrifuged at 5000 rpm for 10 minutes at 4° C. to extract the plasma. The frozen brain samples were thawed, weighed, and homogenized (3:1 tissue weight/buffer volume) in 0.25 M sucrose, containing 50 mM KHPO4(pH 7.4), with a Teflon glass homogenizer. Deprenyl HCl (at a final concentration of 100 nM) was added to each sample of homogenate to block MAO-B enzyme activity. A volume of 400 μl of homogenate was pipetted into each assay tube. A 50 μl volume of 500 μM [^14C]-5HT (specific activity of 1.6 Curies/mmol) was added to each assay tube to give a final concentration of […]. Blank assay tubes (included to correct for nonspecific deamination of [^14C]-5HT) also contained 50 μl of RO-41-1049, while total activity assay tubes (specific and nonspecific deaminating activity) contained 50 μl of buffer. The final concentration of RO-41-1049 in the blank activity tubes was 100 μM. This yielded a total assay volume of 500 μl. All assays were incubated for 7.5 minutes at 37° C. The reaction was terminated by the addition of 500 μl of 2 M citric acid. The deaminated [^14C]-5HT metabolite was extracted into a liquid scintillation fluor mixture of xylene/ethyl acetate and 0.4% PPO and quantified using a liquid scintillation spectrometer.\nThe specific activity of MAO-A in each of the samples was determined by subtraction of the values obtained in the nonspecific tubes from those in the total activity tubes. Methylcellulose was prepared by weighing 17.5 grams in a weigh boat on a Mettler balance and poured into a 4 liter flask. Two liters of distilled water was added to the 4 liter flask. The mixture was placed on a stir plate/hot plate and stirred overnight (for 24 hours) until completely dissolved. After the methylcellulose dissolved, distilled water was added until the volume in the flask reached 3.5 liters. The CX157 was prepared in a 0.5% methylcellulose/Tween 80 mixture to obtain the following dosages 1, 5, and 10 mg/kg. Initially, 52 mg of CX157 was placed in a 7 ml amber vial. A volume of 52 μl of Tween 80 was added to the amber vial containing CX157. A volume of 5.2 ml of methylcellulose was added to this vial to yield a solution of 10 mg/ml; this solution was used to deliver the 10 mg/kg dose. For the 5 mg/kg dose, a 5 mg/ml solution was prepared as follows; a volume of 1 ml of 10 mg/ml stock was mixed with 1 ml of methylcellulose and sonicated until mixed thoroughly. For the 1 mg/kg dose, a 1:10 dilution of the stock dose of 10 mg/ml was performed by pipetting 0.5 ml of 10 mg/ml stock into an amber vial with an addition of 4.5 ml of methylcellulose followed by sonication to disperse the drug into solution. All drugs were then administered on a 1 ml/kg basis with an average volume of 200 μl.", "note": "Values joined by “and” are separate entries in the source; they are usually repeats but may differ in a detail not shown here. Equal values may be shown once. “Also recorded” adds a separate entry of the source.", "data": [{"smiles": "O=S1(=O)c2ccc(F)cc2Oc2cc(OCC(F)(F)F)ccc21", "note": "[CX157, 3-fluoro-7(2,2,2-trifluorethoxy)phenoxathiine-10,10-dioxide]", "values": [{"measurement": "brain MAO-A activity, % Baseline", "setting": "1 mg/kg oral table, 0 h (baseline)", "value": 100, "unit": "%"}, {"measurement": "Mean brain MAO-A activity", "setting": "1 mg/kg oral table, 0 h (pooled baseline, N=12)", "value": 4002.0, "unit": "DPM"}, {"measurement": "mean brain MAO-A activity (Avg.)", "setting": "1 mg/kg oral, 0 h", "value": 3636}, {"measurement": "Mean brain MAO-A activity", "setting": "1 mg/kg oral, 2 h", "value": 2777.5, "unit": "DPM"}, {"measurement": "brain MAO-A activity, % Baseline", "setting": "1 mg/kg oral, 2 h", "value": 69, "unit": "%"}, {"measurement": "mean brain MAO-A activity (Avg.)", "setting": "1 mg/kg oral, 2 h", "value": 2778}, {"measurement": "Mean brain MAO-A activity", "setting": "1 mg/kg oral, 4 h", "value": 3023.3, "unit": "DPM"}, {"measurement": "brain MAO-A activity, % Baseline", "setting": "1 mg/kg oral, 4 h", "value": 76, "unit": "%"}, {"measurement": "mean brain MAO-A activity (Avg.)", "setting": "1 mg/kg oral, 4 h", "value": 3023}, {"measurement": "Mean brain MAO-A activity", "setting": "1 mg/kg oral, 8 h", "value": 5120.8, "unit": "DPM"}, {"measurement": "brain MAO-A activity, % Baseline", "setting": "1 mg/kg oral, 8 h", "value": 128, "unit": "%"}, {"measurement": "mean brain MAO-A activity (Avg.)", "setting": "1 mg/kg oral, 8 h", "value": 5121}, {"measurement": "Mean brain MAO-A activity", "setting": "1 mg/kg oral, 18 h", "value": 3993.0, "unit": "DPM"}, {"measurement": "brain MAO-A activity, % Baseline", "setting": "1 mg/kg oral, 18 h", "value": 100, "unit": "%"}, {"measurement": "brain MAO-A activity, single experimental day", "setting": "1 mg/kg oral, 18 h, Day #1-#4, 1 mg/kg", "value": "5071 and 5019 and 3071 and 2811"}, {"measurement": "mean brain MAO-A activity (Avg.)", "setting": "1 mg/kg oral, 18 h", "value": 3993}, {"measurement": "Mean brain MAO-A activity", "setting": "1 mg/kg oral, 24 h", "value": 4883.0, "unit": "DPM"}, {"measurement": "brain MAO-A activity, % Baseline", "setting": "1 mg/kg oral, 24 h", "value": 122, "unit": "%"}, {"measurement": "mean brain MAO-A activity (Avg.)", "setting": "1 mg/kg oral, 24 h", "value": 4883}, {"measurement": "brain MAO-A activity, % Baseline", "setting": "5 mg/kg oral table, 0 h (baseline)", "value": 100, "unit": "%"}, {"measurement": "Mean brain MAO-A activity", "setting": "5 mg/kg oral table, 0 h (pooled baseline, N=12)", "value": 4002.0, "unit": "DPM"}, {"measurement": "brain MAO-A activity, single experimental day", "setting": "5 mg/kg oral, 0 h, Day #1-#4, 5 mg/kg", "value": "5661 and 5499 and 3070 and 3687"}, {"measurement": "mean brain MAO-A activity (Avg.)", "setting": "5 mg/kg oral, 0 h", "value": 4479}, {"measurement": "Mean brain MAO-A activity", "setting": "5 mg/kg oral, 2 h", "value": 1495.5, "unit": "DPM"}, {"measurement": "brain MAO-A activity, % Baseline", "setting": "5 mg/kg oral, 2 h", "value": 37, "unit": "%"}, {"measurement": "mean brain MAO-A activity (Avg.)", "setting": "5 mg/kg oral, 2 h", "value": 1496}, {"measurement": "Mean brain MAO-A activity", "setting": "5 mg/kg oral, 4 h", "value": 2298.0, "unit": "DPM"}, {"measurement": "brain MAO-A activity, % Baseline", "setting": "5 mg/kg oral, 4 h", "value": 57, "unit": "%"}, {"measurement": "mean brain MAO-A activity (Avg.)", "setting": "5 mg/kg oral, 4 h", "value": 2298}, {"measurement": "Mean brain MAO-A activity", "setting": "5 mg/kg oral, 8 h", "value": 1365.5, "unit": "DPM"}, {"measurement": "brain MAO-A activity, % Baseline", "setting": "5 mg/kg oral, 8 h", "value": 34, "unit": "%"}, {"measurement": "mean brain MAO-A activity (Avg.)", "setting": "5 mg/kg oral, 8 h", "value": 1366}, {"measurement": "Mean brain MAO-A activity", "setting": "5 mg/kg oral, 18 h", "value": 2818.5, "unit": "DPM"}, {"measurement": "brain MAO-A activity, % Baseline", "setting": "5 mg/kg oral, 18 h", "value": 70, "unit": "%"}, {"measurement": "mean brain MAO-A activity (Avg.)", "setting": "5 mg/kg oral, 18 h", "value": 2818}, {"measurement": "Mean brain MAO-A activity", "setting": "5 mg/kg oral, 24 h", "value": 3442.5, "unit": "DPM"}, {"measurement": "brain MAO-A activity, % Baseline", "setting": "5 mg/kg oral, 24 h", "value": 86, "unit": "%"}, {"measurement": "mean brain MAO-A activity (Avg.)", "setting": "5 mg/kg oral, 24 h", "value": 3443}, {"measurement": "brain MAO-A activity, % Baseline", "setting": "10 mg/kg oral table, 0 h (baseline)", "value": 100, "unit": "%"}, {"measurement": "Mean brain MAO-A activity", "setting": "10 mg/kg oral table, 0 h (pooled baseline, N=12)", "value": 4002.0, "unit": "DPM"}, {"measurement": "mean brain MAO-A activity (Avg.)", "setting": "10 mg/kg oral, 0 h", "value": 3889}, {"measurement": "Mean brain MAO-A activity", "setting": "10 mg/kg oral, 2 h", "value": 3805.8, "unit": "DPM"}, {"measurement": "brain MAO-A activity, % Baseline", "setting": "10 mg/kg oral, 2 h", "value": 95, "unit": "%"}, {"measurement": "mean brain MAO-A activity (Avg.)", "setting": "10 mg/kg oral, 2 h", "value": 3806}, {"measurement": "Mean brain MAO-A activity", "setting": "10 mg/kg oral, 4 h", "value": 1893.5, "unit": "DPM"}, {"measurement": "brain MAO-A activity, % Baseline", "setting": "10 mg/kg oral, 4 h", "value": 47, "unit": "%"}, {"measurement": "mean brain MAO-A activity (Avg.)", "setting": "10 mg/kg oral, 4 h", "value": 1894}, {"measurement": "Mean brain MAO-A activity", "setting": "10 mg/kg oral, 8 h", "value": 1034.5, "unit": "DPM"}, {"measurement": "brain MAO-A activity, % Baseline", "setting": "10 mg/kg oral, 8 h", "value": 26, "unit": "%"}, {"measurement": "mean brain MAO-A activity (Avg.)", "setting": "10 mg/kg oral, 8 h", "value": 1035}, {"measurement": "Mean brain MAO-A activity", "setting": "10 mg/kg oral, 18 h", "value": 2149.8, "unit": "DPM"}, {"measurement": "brain MAO-A activity, % Baseline", "setting": "10 mg/kg oral, 18 h", "value": 54, "unit": "%"}, {"measurement": "mean brain MAO-A activity (Avg.)", "setting": "10 mg/kg oral, 18 h", "value": 2150}, {"measurement": "Mean brain MAO-A activity", "setting": "10 mg/kg oral, 24 h", "value": 1711.8, "unit": "DPM"}, {"measurement": "brain MAO-A activity, % Baseline", "setting": "10 mg/kg oral, 24 h", "value": 43, "unit": "%"}, {"measurement": "mean brain MAO-A activity (Avg.)", "setting": "10 mg/kg oral, 24 h", "value": 1712}, {"measurement": "inhibition of brain MAO-A enzyme activity after oral administration", "setting": "oral 1, 5, 10 mg/kg", "value": "dose and time dependent manner; also recorded: dose-dependent and reversible fashion"}]}]}
